Test results taken from publication PMC10920834, “Synthesis, anticancer activity, and molecular docking of half-sandwich iron(II) cyclopentadienyl complexes with maleimide and phosphine or phosphite ligands” (Scientific Reports, 2024).

What was measured:
Format in all cases: cell-based, human
HL-60 cells = assay: Cell viability resazurin assay, HL-60 cells; details: for viability of HL-60 cells relative to control: ± SD
Procedure: (§1) The A549 (human non-small cell lung cancer) cell line was obtained from the American Type Culture Collection (ATCC) and cultured in Dulbecco's Modified Eagle Medium (DMEM) with 10% fetal bovine serum (FBS), 2 mM L-Glutamine, 25 mM HEPES and penicillin/streptomycin solution (100 U/ml and 100 µg/ml, respectively). The HL-60 (human promyelocytic leukemia) cell line was also obtained from the American Type Culture Collection (ATCC) and cultured in Iscove’s Modified Dulbecco's Medium (IMDM) with 15% fetal bovine serum (FBS), 2 mM L-Glutamine, 25 mM HEPES and penicillin/streptomycin solution (100 U/ml and 100 µg/ml, respectively). Both cell lines were cultured in flasks at 37 °C in 5% CO2 and sub-cultured every 2–3 days to maintain exponential growth.
(§2) Firstly, resazurin salt powder was dissolved in sterile 1 × PBS. Cells were then seeded on the 96-well plates in the count of 1 × 10^4 in the case of HL-60 cells and of 5 × 10^4 for PBM cells and of 5 × 10^3 for A549 cells per well. A549 cells were seeded 24 h prior to treatment with the complexes to allow cell adherence to 96-well plate. Iron(II) complexes were added to wells to obtain final concentrations of 0.5, 1, 2.5, 5, 10, 25, 50, 100 and 250 μM. Subsequently, plates were incubated at 37 °C in 5% CO2 for 2 h and 24 h. After that 10 μl of resazurin salt was added to each well and plates again were incubated in 37 °C in 5% CO2 for 2 h. Finally, fluorescence was measured with microplate reader Synergy HT (Bio-Tek Instruments, USA) using an excitation wavelength of 530/25 and an emission wavelength of 590/35 nm. The effects of iron(II) complexes were calculated as the percentage of control fluorescence. IC50 (half maximal inhibitory concentration) values were calculated using a website algorithm (https://www.aatbio.com/tools/ic50-calculator). All assays were performed in octuplicate.

A549 cells = assay: Cell viability resazurin assay, A549 cells; details: for viability of A549 cells relative to control: ± SD
Procedure: as §1, §2

PBM cells = assay: Cell viability resazurin assay, PBM cells; details: for viability of PBM cells relative to control: ± SD
Description: Peripheral blood mononuclear (PBM) cells were isolated from a leukocyte-buffy coat collected from the blood of healthy, non-smoking donors at the Blood Bank in Lodz, Poland. The study protocol received approval from the Committee for Research on Human Subjects of the University of Lodz (17/KBBN-UŁ/III/2019). The initial step of isolation process involved mixing buffy coats with PBS in a 1:1 ratio. Subsequently, the mixture was centrifuged using a density gradient of Lymphosep (Cytogen, Zgierz, Poland) at 2200 RPM for 20 min, employing the lowest values for acceleration and deceleration. PBM cells were collected and washed three times by centrifugation with 1 × PBS. Following isolation, the cells were suspended in RPMI 1640 medium.
as §2

## O=C1C=CC(=O)[N-]1.[C-]#[O+].[Fe+2].c1cc[cH-]c1.c1ccc(OP(Oc2ccccc2)Oc2ccccc2)cc1 [3b, CpFe(CO)(P(OPh)3)(η^1-N-maleimidato)]
HL-60 cells; 2 h incubation, 0.5 µM
  viability of HL-60 cells relative to control: 108.58 ± 5.93%
HL-60 cells; 2 h incubation, 1 µM
  viability of HL-60 cells relative to control: 105.27 ± 5.97%
HL-60 cells; 2 h incubation, 2.5 µM
  viability of HL-60 cells relative to control: 111.13 ± 4.29%
HL-60 cells; 2 h incubation, 5 µM
  viability of HL-60 cells relative to control: 116.45 ± 4.31%
HL-60 cells; 2 h incubation, 10 µM
  viability of HL-60 cells relative to control: 125.67 ± 4.5%
HL-60 cells; 2 h incubation, 25 µM
  viability of HL-60 cells relative to control: 140.68 ± 7.01%
HL-60 cells; 2 h incubation, 50 µM
  viability of HL-60 cells relative to control: 116.21 ± 2.09%
HL-60 cells; 2 h incubation, 100 µM
  viability of HL-60 cells relative to control: 70.87 ± 2.53%
HL-60 cells; 2 h incubation, 250 µM
  viability of HL-60 cells relative to control: 23.24 ± 0.25%
HL-60 cells; 2 h incubation, concentration not given
  HL-60 cell viability, sharp increase up to: approximately 140%
HL-60 cells; 24 h incubation
  IC50: 9.09 µM
HL-60 cells; 24 h incubation, 0.5 µM
  viability of HL-60 cells relative to control: 101.68 ± 1.04%
HL-60 cells; 24 h incubation, 1 µM
  viability of HL-60 cells relative to control: 98.91 ± 4.85%
HL-60 cells; 24 h incubation, 2.5 µM
  viability of HL-60 cells relative to control: 91.42 ± 3.16%
HL-60 cells; 24 h incubation, 5 µM
  viability of HL-60 cells relative to control: 72.37 ± 3.19%
HL-60 cells; 24 h incubation, 10 µM
  viability of HL-60 cells relative to control: 49.27 ± 1.71%
HL-60 cells; 24 h incubation, 25 µM
  viability of HL-60 cells relative to control: 3.18 ± 0.36%
HL-60 cells; 24 h incubation, 50 µM
  viability of HL-60 cells relative to control: 0.99 ± 0.02%
HL-60 cells; 24 h incubation, 100 µM
  viability of HL-60 cells relative to control: 0.96 ± 0.1%
HL-60 cells; 24 h incubation, 250 µM
  viability of HL-60 cells relative to control: 0.94 ± 0.06%
A549 cells; 2 h incubation, 0.5 µM
  viability of A549 cells relative to control: 94.42 ± 12.46%
A549 cells; 2 h incubation, 1 µM
  viability of A549 cells relative to control: 97.15 ± 8.30%
A549 cells; 2 h incubation, 2.5 µM
  viability of A549 cells relative to control: 96.59 ± 9.16%
A549 cells; 2 h incubation, 5 µM
  viability of A549 cells relative to control: 90.46 ± 7.14%
A549 cells; 2 h incubation, 10 µM
  viability of A549 cells relative to control: 93.75 ± 11.55%
A549 cells; 2 h incubation, 25 µM
  viability of A549 cells relative to control: 97.77 ± 7.39%
A549 cells; 2 h incubation, 50 µM
  viability of A549 cells relative to control: 104.82 ± 7.84%
A549 cells; 2 h incubation, 100 µM
  viability of A549 cells relative to control: 97.69 ± 11.65%
A549 cells; 2 h incubation, 250 µM
  viability of A549 cells relative to control: 97.95 ± 13.58%
A549 cells; 24 h incubation
  IC50: 19.2 µM
A549 cells; 24 h incubation, 0.5 µM
  viability of A549 cells relative to control: 91.38 ± 8.55%
A549 cells; 24 h incubation, 1 µM
  viability of A549 cells relative to control: 92.49 ± 11.20%
A549 cells; 24 h incubation, 2.5 µM
  viability of A549 cells relative to control: 78.64 ± 6.01%
A549 cells; 24 h incubation, 5 µM
  viability of A549 cells relative to control: 80.46 ± 7.49%
A549 cells; 24 h incubation, 10 µM
  viability of A549 cells relative to control: 80.04 ± 11.40%
A549 cells; 24 h incubation, 25 µM
  viability of A549 cells relative to control: 25.66 ± 3.11%
A549 cells; 24 h incubation, 50 µM
  viability of A549 cells relative to control: 22.34 ± 2.60%
A549 cells; 24 h incubation, 100 µM
  viability of A549 cells relative to control: 42.71 ± 5.87%
A549 cells; 24 h incubation, 250 µM
  viability of A549 cells relative to control: 28.61 ± 5.09%
PBM cells; 2 h incubation, 0.5 µM
  viability of PBM cells relative to control: 98.5 ± 2.18%
PBM cells; 2 h incubation, 1 µM
  viability of PBM cells relative to control: 99.88 ± 2.57%
PBM cells; 2 h incubation, 2.5 µM
  viability of PBM cells relative to control: 97.35 ± 5.51%
PBM cells; 2 h incubation, 5 µM
  viability of PBM cells relative to control: 100.32 ± 3.02%
PBM cells; 2 h incubation, 10 µM
  viability of PBM cells relative to control: 99.06 ± 3.6%
PBM cells; 2 h incubation, 25 µM
  viability of PBM cells relative to control: 98.42 ± 1.87%
PBM cells; 2 h incubation, 50 µM
  viability of PBM cells relative to control: 100.03 ± 0.88%
PBM cells; 2 h incubation, 100 µM
  viability of PBM cells relative to control: 98.48 ± 0.54%
PBM cells; 2 h incubation, 250 µM
  viability of PBM cells relative to control: 99.51 ± 1.24%
PBM cells; 24 h incubation
  IC50: 5.8 µM
PBM cells; 24 h incubation, 0.5 µM
  viability of PBM cells relative to control: 97.8 ± 2.01%
PBM cells; 24 h incubation, 1 µM
  viability of PBM cells relative to control: 98.46 ± 7.18%
PBM cells; 24 h incubation, 2.5 µM
  viability of PBM cells relative to control: 94.41 ± 2.27%
PBM cells; 24 h incubation, 5 µM
  viability of PBM cells relative to control: 52.91 ± 0.63%
PBM cells; 24 h incubation, 10 µM
  viability of PBM cells relative to control: 49.35 ± 1.94%
PBM cells; 24 h incubation, 25 µM
  viability of PBM cells relative to control: 31 ± 1.1%
PBM cells; 24 h incubation, 50 µM
  viability of PBM cells relative to control: 28.33 ± 2.17%
PBM cells; 24 h incubation, 100 µM
  viability of PBM cells relative to control: 16.65 ± 0.55%
PBM cells; 24 h incubation, 250 µM
  viability of PBM cells relative to control: 13.82 ± 0.52%
